Experimental data as given in the NIST ThermoML archive (doi:10.1016/j.fluid.2014.09.016).
Numbers after ± are expanded uncertainties.

Details: 298.15 K; 101.33 kPa; Liquid; Pycnometric method

| SMILES | mass density [kg/m3] |
| --- | --- |
| COP(=O)([O-])OC.Cn1cc[n+](C)c1 [1,3-dimethylimidazolium dimethylphosphate] | 1257.8 ± 1.6 |
| CCOP(=O)([O-])OCC.CCn1cc[n+](C)c1 [1-ethyl-3-methylimidazolium diethyl phosphate] | 1146.1 ± 1.4 |
